# Results reported in PubChem BioAssay AID720632 (Broad Institute, 2013).
# Calls of active or inactive are those of the source. No rule for the calls is given here.
# Target: Caspase-6 (Homo sapiens) (UniProt P55212)
# Test: inhibition of CASP6 peptide cleavage – biochemical, VEID-R110 fluorescence, cherry-pick, dose response (AID 720632)
# Details: caspase-6, VEID-R110 fluorogenic substrate; at 8 µM (top of the series)
# Sequence of Caspase-6 (Homo sapiens) (P55212 24-179 limits assumed): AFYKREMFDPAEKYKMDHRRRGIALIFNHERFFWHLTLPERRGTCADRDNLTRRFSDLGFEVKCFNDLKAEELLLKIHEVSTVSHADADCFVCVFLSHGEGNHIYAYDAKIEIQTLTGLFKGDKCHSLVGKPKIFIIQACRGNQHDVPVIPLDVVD
# Sequence of Caspase-6 (Homo sapiens) (P55212 194-293 limits assumed): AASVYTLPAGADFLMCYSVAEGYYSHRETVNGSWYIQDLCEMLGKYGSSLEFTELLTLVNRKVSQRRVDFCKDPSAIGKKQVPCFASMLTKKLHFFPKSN
row,"activity change, negative = inhibition",Structure (SMILES)
1,inactive,O=C(NC[C@@H]1CC[C@@H]2[C@@H](CN2S(=O)(=O)c2ccccc2[N+](=O)[O-])O1)C1CCOCC1

# Same assay, conditions: caspase-6, VEID-R110 fluorogenic substrate; at 23.5 µM (top of the series)
row,"activity change, negative = inhibition",Structure (SMILES)
1,inactive,COCC(=O)N1[C@@H]2CN(C(=O)Nc3ccccc3F)c3ccccc3[C@@H]2[C@@H]1CO

# Same assay, conditions: caspase-6, VEID-R110 fluorogenic substrate; at 26 µM (top of the series)
row,Structure (SMILES),"activity change, negative = inhibition"
1,CN(C)CCNC(=O)c1cccc(S(=O)(=O)Nc2ccccc2F)c1,inactive
2,CNC(=O)c1ccccc1NC(=O)C1CC(=O)N(C(C)C)C1 (stereo unspecified),inactive
3,COc1ccc(S(=O)(=O)N2CCOC23CCN(S(=O)(=O)c2ccc(C)cc2)CC3)cc1,inactive
4,CCN(Cc1ccccc1OC)CC1CCCN(CCc2cccc(OC)c2)C1 (stereo unspecified),inactive
5,CN1c2ccccc2Sc2cc(N)ccc21,inactive
6,Clc1cccc(-c2nn3c(Cn4cnc5ccccc54)nnc3s2)c1,inactive
7,O=C([C@H]1[C@H](CO)[C@H]2Cn3c(cccc3=O)[C@H]2N1Cc1ccccn1)N1CCC(Cc2ccccc2)CC1,inactive
8,N[C@@H](Cc1cc(I)c(O)c(I)c1)C(=O)O,inactive
9,CCCN1C[C@H](C)[C@@H](OC)CN(C)C(=O)c2ccc(NC(=O)CC)cc2OC[C@H]1C,inactive
10,COCC(=O)Nc1ccc2c(c1)OC[C@@H](C)N(CC1CC1)C[C@H](C)[C@H](OC)CN(C)C2=O,inactive
11,O=C(CCOc1ccccc1)N1CCN(S(=O)(=O)c2ccccc2F)CC1,inactive
12,COCC(=O)Nc1ccc2c(c1)OC[C@H](C)N(CC1CC1)C[C@@H](C)[C@@H](OC)CN(C)C2=O,inactive
13,COc1cccc(CN2CCc3[nH]c(=S)[nH]c(=O)c3C2)c1,inactive
14,CO[C@H]1CN(C)C(=O)c2ccc(NC(=O)c3ccccc3)cc2OC[C@H](C)N(C(=O)C2CC2)C[C@H]1C,inactive
15,Cn1cc(C(CC(=O)O)C(=O)O)c2ccccc21 (stereo unspecified),inactive
16,CC(C)CN1CCC(CN2CCNC(=O)C2=O)CC1,inactive
17,CCOC(=O)N1CCN(C(=O)Cc2ccccc2[N+](=O)[O-])CC1,inactive
18,Cc1ccc(NC(=O)C(c2ccccc2)N2CCN(CC(=O)N3CCOCC3)CC2)cc1Cl (stereo unspecified),inactive
19,CC(C)(C)c1ccc(C(=O)Nc2ccc(S(=O)(=O)Nc3cnc4ccccc4n3)cc2)cc1,inactive
20,CCOc1ccc(Nc2nc(N3CCOCC3)nc(N3CCOCC3)n2)cc1,inactive
21,C/C(=N\NC(=O)c1ccccc1O)c1ccc(NC(=O)Cc2ccccc2)cc1,inactive

row,Structure (SMILES),"activity change, negative = inhibition"
1,O=C(C[C@H]1C=C[C@H](NC(=O)c2ccccc2)[C@H](CO)O1)NCCc1ccncc1,inactive
2,O=C([C@@H]1[C@@H](CO)[C@@H]2Cn3c(cccc3=O)[C@@H]2N1Cc1cc(F)ccc1F)N1CCOCC1,inactive
3,O=C(CCCn1c(=S)[nH]c2cc3c(cc2c1=O)OCO3)N1CCN(C2CCCCC2)CC1,inactive
4,CCCC(=O)Nc1ccc2c(c1)OC[C@@H](C)N(C)C[C@@H](C)[C@H](OC)CN(C)C2=O,inactive
5,CC1CCCC(C)N1C(=O)C1CCCCC1 (stereo unspecified),inactive
6,CC1CCc2[nH]c3ccc(C(=O)O)cc3c2C1 (stereo unspecified),inactive
7,Cc1onc(-c2ccc(Cl)cc2Cl)c1-c1csc(N/N=C/c2ccccc2Cl)n1,inactive
8,O=C(C[C@@H]1C=C[C@@H](NC(=O)c2ccc(F)cc2)[C@@H](CO)O1)NCc1ccncn1,inactive
9,CN(c1ccc(C(=O)Nc2ccc3c(c2)n(C)c(=O)n3C)cc1)S(C)(=O)=O,inactive
10,Cc1[nH]ncc1Nc1c(C(C)C)cccc1C(C)C,inactive
11,CCCN1C[C@H](C)[C@@H](OC)CN(C)C(=O)c2ccc(NC(=O)c3ccccc3)cc2OC[C@H]1C,inactive
12,CCN=c1sc(C(=O)Nc2ccccc2)c(C)n1CC,inactive
13,Cc1nc2ccc(NS(=O)(=O)c3c(F)cc(F)cc3Br)cc2s1,inactive
14,O=C(N/N=C/C1CC=CCC1)c1ccc(Cl)cc1O (stereo unspecified),inactive
15,O=C(Nc1cccc(-c2ccccc2)c1)N1CCN(C(=O)Nc2cccc(-c3ccccc3)c2)CC1,inactive
16,CO[C@@H]1CN(C)C(=O)c2ccc(NC(=O)c3ccccc3)cc2OC[C@@H](C)N(C(=O)C2CC2)C[C@@H]1C,inactive
17,O=[N+]([O-])c1ccc(NCCN2CCOCC2)c([N+](=O)[O-])c1,inactive
18,CCN(CC)c1ccc2c(cc1=O)[C@@H](NC)CCc1cc(OC)c(OC)c(OC)c1-2,inactive
19,CCC(=O)Nc1ccc2c(c1)OC[C@H](C)N(C(=O)CC)C[C@H](C)[C@H](OC)CN(C)C2=O,inactive
20,OCc1ccccc1-c1nc(NCc2ccccc2)nc2ccsc12,inactive

# Next, values leading:
row,"activity change, negative = inhibition",Structure (SMILES)
1,inactive,COc1cc2[nH]c(Cl)c([N+](=O)[O-])c2cc1OC
2,inactive,COC(=O)C[C@H]1CC[C@@H]2[C@H](COc3ccc(NC(=O)c4cnccn4)cc3C(=O)N2C)O1
3,inactive,COc1ccccc1C(=O)Nc1ccc2c(c1)OC[C@H](C)N(CC1CC1)C[C@H](C)[C@H](OC)CN(C)C2=O
4,inactive,CC(C)=NNc1cc([N+](=O)[O-])cc2c1C(=O)N(C)S2=O (stereo unspecified)
5,inactive,O=C(COC(=O)c1ccc([N+](=O)[O-])s1)NC(=O)NCc1ccccc1
6,inactive,COC(=O)c1ccc(COc2cc([N+](=O)[O-])cc3cccnc23)o1
7,inactive,CCOc1ncccc1C(=O)OC(C)C(=O)Nc1ccc(N2CCOCC2)cc1 (stereo unspecified)
8,inactive,O=C(N/N=C\c1ccc([N+](=O)[O-])o1)c1cncc(Br)c1
9,inactive,CC(C)NC(=O)N1[C@H](CO)[C@@H](c2ccccc2)C12CN(C(=O)Cc1cccnc1)C2
10,inactive,CCC(=O)Nc1c(C#N)c2nc3ccccc3nc2n1-c1ccc(C)cc1
11,inactive,Cc1ccc([N+](=O)[O-])cc1NC(=O)C(C)N1CCCCC1 (stereo unspecified)
12,inactive,Oc1cc(Nc2cccnc2)cc2cccnc12
13,inactive,COc1ccc(OC)c(N(CC(=O)Nc2ccccc2)S(C)(=O)=O)c1
14,inactive,CC(C)CNC(=O)c1cccc2c(-c3ccc(F)c(F)c3)coc12
15,inactive,COC(=O)c1ccc(CNC(=O)COC(=O)c2ccccc2-c2ccccc2)cc1
16,inactive,COc1ccc(OC)c(NC(=O)Nc2ccc(O)c3ccccc23)c1
17,inactive,Cc1cc(C)cc(N(CC(=O)NC(C)C)C(=O)CCC(=O)Nc2ccccn2)c1

row,"activity change, negative = inhibition",Structure (SMILES)
1,inactive,CCCC(=O)n1nc(-c2cccnc2)nc1NCc1ccc(OC)cc1
2,inactive,O=C(Cc1ccccn1)NCC[C@@H]1CC[C@@H](NC(=O)c2ccccc2F)[C@H](CO)O1
3,inactive,O=C(OCC(=O)N1CCN(c2ccccc2)CC1)c1ccc([N+](=O)[O-])s1
4,inactive,COc1ccc(N(C)S(=O)(=O)c2cccc(C(=O)NCC(c3cccs3)N(C)C)c2)cc1 (stereo unspecified)
5,inactive,CCOc1ccc(N(CC(=O)Nc2cc(Cl)ccc2C)S(C)(=O)=O)cc1
6,inactive,Cc1ccc(NC(=O)c2ccc([N+](=O)[O-])o2)cc1S(=O)(=O)N1CCOCC1
7,inactive,COc1ccccc1NC(=O)c1ccccc1S(=O)(=O)c1ccc([N+](=O)[O-])cc1
8,inactive,CCOCCCNC(=O)C1c2ccccc2Oc2ccccc21
9,inactive,COc1ccc(OC)c(S(=O)(=O)NCC(c2cccs2)N2CCc3ccccc3C2)c1 (stereo unspecified)
10,inactive,Cc1ccc(/C(N)=N/OC(=O)c2ccc3ccccc3c2)cc1
11,inactive,CC(Nc1ccc2ccccc2c1)C(=O)N/N=C/c1ccncc1 (stereo unspecified)
12,inactive,CCOC(=O)c1c(C)c(C(=O)NCc2ccc(OC)cc2)c(C)n1C
13,inactive,Cc1cc(C)c(NC(=O)COC(=O)c2ccc([N+](=O)[O-])s2)c(C)c1
14,inactive,CO[C@@H]1CN(C)C(=O)c2ccc(NC(=O)C3CC3)cc2OC[C@H](C)N(Cc2cccc(F)c2)C[C@@H]1C
15,inactive,CN1CCN(c2ccc(CNC(=O)C3Cc4c(-c5ccc6c(c5)OCO6)ccnc4O3)cc2)CC1 (stereo unspecified)
16,inactive,COc1cc(CN2CCc3ccccc3C2)cc([N+](=O)[O-])c1O
